The experiment relates to Mycobacterium tuberculosis. As to the kind of experiment: Antimycobacterial activity against Mycobacterium bovis BCG measured after 7 days. The settings on record: variant bovis BCG, 168 h. The format is functional, organism-based.

Molecules are shown by their SMILES. Residues, ends and D or L forms follow the SMILES beside them.

In turn, `CC(C)C[C@@H]1NC(=O)[C@H](Cc2c[nH]c3ccccc23)NC(=O)[C@@H](CCCN)NC(=O)[C@H](CC(N)=O)NC(=O)[C@H](C(C)C)NC(=O)[C@@H](CC(C)C)NC1=O` (HELM PEPTIDE1{[NCCC[C@@H](N[*:1])C(=O)[*:2]].W.L.[dL].V.N}$PEPTIDE1,PEPTIDE1,1:R1-6:R2$$$V2.0) yielded an IC50 of 3100 nM.

Take `CC[C@@H](C)[C@@H]1NC(=O)[C@@H](CC(C)C)NC(=O)[C@H](CC(C)C)NC(=O)[C@H](Cc2c[nH]c3ccccc23)NC(=O)[C@@H](CCCN)NC(=O)[C@H](CC(N)=O)NC1=O`: inhibition was half-maximal at 2800 nM (IC50).

The values are drawn from ChEMBL document CHEMBL4229459, “An efficient synthetic route for preparation of antimycobacterial wollamides and evaluation of their in vitro and in vivo efficacy” (Bioorg Med Chem Lett, 2018).
